Results as given in patent publication US5466436A, “Medicaments for treating inflammatory conditions or for analgesia” (Glaxo Group Limited, priority 1991, dated 1995).
Structures can show the parent of a compound that is named as a salt.

Experiments:
[1] = system: indomethacin-induced gastric antral ulceration; experiment: Inhibition of indomethacin-induced gastric antral ulceration in the rat (modified Satoh et al.); type: in vivo; details: for potency compared with other test compounds (in words): ranitidine bismuth citrate versus ranitidine hydrochloride and De-Nol, po; for potency compared with other test compounds (in words) / inhibition of indomethacin-induced lesions (in words): rats; for inhibition of indomethacin-induced lesions (in words): ranitidine bismuth citrate 1 to 100 mg/kg po
Procedure: The ability of ranitidine bismuth citrate to prevent indomethacin-induced gastric antral ulceration was compared with that of ranitidine hydrochloride and De-Nol™. Female rats, which had been fasted for 24 hours and then re-fed, received ranitidine bismuth citrate (1 to 100mg/kg), ranitidine hydrochloride (10 to 100mg/kg) or De-Nol™ (3 to 100mg/kg) by oral gavage. Ranitidine bismuth citrate was administered as a suspension and the other test compounds as solutions. Thirty minutes after dosing with the test compound, animals received indomethacin (60mg/kg sc) as an ulcerogenic stimulus and after a further 6 hours the animals were killed and the antral region assessed macroscopically for damage.

[2] = system: mucosal lesions of the gastrointestinal tract caused by non-steroidal anti-inflammatory drugs; experiment: Tests in animals and humans: mucosal lesions of the gastrointestinal tract caused by non-steroidal anti-inflammatory drugs; type: in vivo
[3] = system: aspirin-induced injury to the gastric mucosa; details: human clinical study, N. Hudson et al., Gut 1992, 33 supplement, s47; cited from earlier work
[4] = listed as Ranitidine bismuth citrate
[5] = listed as ranitidine bismuth citrate

Row | Compound | ED50 ([1]; Rattus norvegicus, female rats, oral gavage 30 min before indomethacin 60 mg/kg sc, antral damage assessed after a further 6 hours) [mg/kg] | potency compared with other test compounds (in words) [1] | ED50 for inhibition of indomethacin-induced antral ulceration ([1]; female rats, oral gavage 30 min before indomethacin 60 mg/kg sc, antral damage assessed after a further 6 hours) [mg/kg p.o.] | inhibition of indomethacin-induced lesions (in words) [1, 4] | inhibition of indomethacin-induced lesions (in words) [1, 5] | potency compared with other test compounds (in words) [1, 4] | potency compared with other test compounds (in words) [1, 5] | reduction of NSAID-caused mucosal lesions of the gastrointestinal tract (in words) [2] | protection from aspirin-induced injury to the gastric mucosa (in words) [3]
1 | CNC(=C[N+](=O)[O-])NCCSCc1ccc(CN(C)C)o1 [Ranitidine Hydrochloride, ranitidine hydrochloride, reference compound] | 23.4 | markedly less potent | – | – | – | – | – | – | –
2 | N-[2-[[[5-[(dimethylamino)methyl]-2-furanyl]methyl]thio]ethyl]-N'-methyl-2-nitro-1,1-ethenediamine 2-hydroxy-1,2,3-propanetricarboxylate bismuth (3^+) complex [Ranitidine Bismuth Citrate] | – | – | 4.5 | dose-related inhibition of indomethacin-induced lesions | prevent indomethacin induced gastric antral ulceration | relatively potent | markedly more potent than both ranitidine hydrochloride and tripotassium dicitrato bismuthate as DeNol™ | significantly reduced | substantial protection from aspirin-induced injury to the gastric mucosa
